Measured values reported in ChEMBL document CHEMBL2203255, “Nerve growth factor-potentiating benzofuran derivatives from the medicinal fungus Phellinus ribis” (J Nat Prod, 2012).
Active and inactive are the calls of the source. No cut-off for these calls is given here.

Tested on: PC-12
Assay: Neuritogenic activity in rat PC12 cells assessed as potentiation of NGF-induced neurite outgrowth at 1 to 30 uM after 4 days by phase-contrast microscopy in presence of 1 ng/ml NGF
Assay type: functional, cell-based

Row | Compound | Activity
1 | CO[C@H]1[C@H](OC)C(=O)c2c(oc3c(O)cccc23)[C@@H]1O | Active
2 | CO[C@@H]1[C@H](OC)C(=O)c2c(oc3ccccc23)[C@@H]1O | Active
3 | CO[C@H]1[C@H](O)c2oc3ccccc3c2C(=O)[C@@H]1OC | Active
4 | CO[C@@H]1C(=O)c2c(oc3ccccc23)[C@H](O)[C@H]1O | Active
